In patent US5849701A, “Peptide inhibitors of fibronectin and related collagen-binding proteins” (The United States of America as represented by the …, priority 1995, dated 1998):
Where no end group is shown, it is not given here.

B1: ovalbumin: control protein (protein, UniProt P01012 2-386, looked up)
Ovalbumin: GSIGAASMEFCFDVFKELKVHHANENIFYCPIAIMSALAMVYLGAKDSTRTQINKVVRFDKLPGFGDSIEAQCGTSVNVHSSLRDILNQITKPNDVYSFSLASRLYAEERYPILPEYLQCVKELYRGGLEPINFQTAADQARELINSWVESQTNGIIRNVLQPSSVDSQTAMVLVNAIVFKGLWEKAFKDEDTQAMPFRVTEQESKPVQMMYQIGLFRVASMASEKMKILELPFASGTMSMLVLLPDEVSGLEQLESIINFEKLTEWTSSNVMEERKIKVYLPRMKMEEKYNLTSVLMAMGITDVFSSSANLSGISSAESLKISQAVHAAHAEINEAGREVVGSAEAGVDAASVSEEFRADHPFLFCIKHIATNAVLFFGRCVSP

Experiments:
fibronectin [1] = target: T1, fibronectin (Homo sapiens, UniProt P02751); test: Inhibition of fibronectin binding to immobilized native type I collagen
Procedure: (§1) Wells of a microtiter plate were incubated for 3 hours at 25° C. with […] gelatin in Dulbecco's PBS. The wells were emptied and incubated with Dulbecco's PBS containing 1% BSA for 30 minutes. The wells were emptied and incubated with 0.5 μg/ml ^125 I-fibronectin in the presence of peptide GlyGlyTrpSerHisTrp (SEQ ID NO: 1) (.circle-solid.); GlyGlyTrpSerLysTrp (SEQ ID NO: 9) (.tangle-solidup.); GlyGlyTyrSerHisTrp (SEQ ID NO: 10) (.box-solid.); or GlyGlyTrpSerHisTyr (SEQ ID NO: 11) (.tangle-soliddn.) for 2 hours at 25° C. The wells were washed 4 times with PBS, cut from the plate and the bound radioactivity was counted.
A ligand binding assay as described in Example 5 was performed except that microtiter plates were coated with immobilized native type I collagen in place of gelatin.

fibronectin [2] = target: T1, fibronectin; test: Direct binding of 125I-fibronectin to immobilized peptides
Procedure: Fibronectin was isolated from platelet-depleted plasma as described (Ariyama, et al. 1985, J. Biol. Chem. 260:4492-4500) and iodinated using Iodogen (Pierce Chemical Co., Rockford, Ill.) as described (Roberts, et al. 1987, J. Cell. Biol. 104:131-139).
Direct binding of the fibronectin to immobilized peptides was carried out by first absorbing the peptides on polyvinyl chloride microtiter wells for 3 hours at 25° C. at the indicated concentrations. Unbound peptides were removed by washing and wells were incubated for 30 minutes in tris-BSA (50 mM tris-HCl, pH7-8, 110 mm NaCl, 1% BSA) (Sigma fatty acid and globulin-free, 0.1% NaN3). The wells were washed and incubated with […] of 0.5 μg/ml ^125 I-fibronectin for 2 hours at 25° C. The wells were washed five times with Dulbecco's phosphate buffered saline and cut from the plate and bound radioactivity was counted.
The peptides listed in Table 1 were synthesized as described above and absorbed to microtiter wells. […] This peptide sequence is located in the second type I repeat of the human-ThbsI gene.

fibronectin [3] = target: T1, fibronectin; test: Inhibition of 125I-fibronectin binding to immobilized peptide GlyGlyTrpSerHisTrp; details: wells coated with 50 μg/ml peptide; 0.5 μg/ml 125I-fibronectin
Procedure: Microtiter plate wells were coated with 50 μg/ml of peptide GlyGlyTrpSerHisTrp (SEQ ID NO: 1) as in Example 1. Binding of ^125 I-fibronectin (0.5 μg/ml) to bound peptide was determined in the presence of increasing amounts of the peptides: FIG. 2A: the peptides are GlyGlyTrpSerHisTrp (SEQ ID NO: 1) (.circle-solid.); GlyGlyTrpSerLysTrp (SEQ ID NO: 9) (.tangle-solidup.); GlyGlyTyrSerHisTrp (SEQ ID NO: 10) (.box-solid.) and GlyGlyTrpSerHisTyr (SEQ ID NO: 11) (.tangle-soliddn.); FIG. 2B: GlyGlyTrpSerHisTrp (SEQ ID NO: 1) (-); GlyGlyTrpThrHisTrp (SEQ ID NO: 12) (.tangle-solidup.); GlyGlyTrpAlaHisTrp (SEQ ID NO: 13) (.box-solid.); GlyTrpSerHisTrp (SEQ ID NO: 14) (+); AlaAlaTrpSerHisTrp (SEQ ID NO: 21) (.tangle-soliddn.); and AspGlyTrpSerHisTrp (SEQ ID NO: 22) (.quadrature.).
Binding of ^125 1-fibronectin (0.5 μg/ml) to microtiter plate wells coated with 50 μg/ml of peptide GlyGlyTrpSerHisTrp (SEQ ID NO: 1) was determined in the presence of synthetic peptide GlyGlyTrpSerHisTrp (SEQ ID NO: 1), fibronectin or thrombospondin.
Microtiter plates were coated with 50 μg/ml of synthetic peptide GlyGlyTrpSerHisTrp (SEQ ID NO: 1) as described in Example 1. Binding of 125I-fibronectin (0.5 μg/ml) to the bound peptide was determined in the presence of proteolytic fragments of fibronectin, which were obtained from Telios Pharmaceuticals, Inc. San Diego, Calif. The proteolytic fragments included intact fibronectin; 30 kDa gelatin-binding domain; 33 kDa recombinant cell binding domain; 28 kDa recombinant cell binding domain and transferrin.

fibronectin [4] = target: T1, fibronectin; test: Inhibition of 125I-fibronectin binding to gelatin; details: 0.5 μg/ml 125I-fibronectin, 2 hours at 25° C.
Procedure: as §1

T1 sequence (P02751 32-2477): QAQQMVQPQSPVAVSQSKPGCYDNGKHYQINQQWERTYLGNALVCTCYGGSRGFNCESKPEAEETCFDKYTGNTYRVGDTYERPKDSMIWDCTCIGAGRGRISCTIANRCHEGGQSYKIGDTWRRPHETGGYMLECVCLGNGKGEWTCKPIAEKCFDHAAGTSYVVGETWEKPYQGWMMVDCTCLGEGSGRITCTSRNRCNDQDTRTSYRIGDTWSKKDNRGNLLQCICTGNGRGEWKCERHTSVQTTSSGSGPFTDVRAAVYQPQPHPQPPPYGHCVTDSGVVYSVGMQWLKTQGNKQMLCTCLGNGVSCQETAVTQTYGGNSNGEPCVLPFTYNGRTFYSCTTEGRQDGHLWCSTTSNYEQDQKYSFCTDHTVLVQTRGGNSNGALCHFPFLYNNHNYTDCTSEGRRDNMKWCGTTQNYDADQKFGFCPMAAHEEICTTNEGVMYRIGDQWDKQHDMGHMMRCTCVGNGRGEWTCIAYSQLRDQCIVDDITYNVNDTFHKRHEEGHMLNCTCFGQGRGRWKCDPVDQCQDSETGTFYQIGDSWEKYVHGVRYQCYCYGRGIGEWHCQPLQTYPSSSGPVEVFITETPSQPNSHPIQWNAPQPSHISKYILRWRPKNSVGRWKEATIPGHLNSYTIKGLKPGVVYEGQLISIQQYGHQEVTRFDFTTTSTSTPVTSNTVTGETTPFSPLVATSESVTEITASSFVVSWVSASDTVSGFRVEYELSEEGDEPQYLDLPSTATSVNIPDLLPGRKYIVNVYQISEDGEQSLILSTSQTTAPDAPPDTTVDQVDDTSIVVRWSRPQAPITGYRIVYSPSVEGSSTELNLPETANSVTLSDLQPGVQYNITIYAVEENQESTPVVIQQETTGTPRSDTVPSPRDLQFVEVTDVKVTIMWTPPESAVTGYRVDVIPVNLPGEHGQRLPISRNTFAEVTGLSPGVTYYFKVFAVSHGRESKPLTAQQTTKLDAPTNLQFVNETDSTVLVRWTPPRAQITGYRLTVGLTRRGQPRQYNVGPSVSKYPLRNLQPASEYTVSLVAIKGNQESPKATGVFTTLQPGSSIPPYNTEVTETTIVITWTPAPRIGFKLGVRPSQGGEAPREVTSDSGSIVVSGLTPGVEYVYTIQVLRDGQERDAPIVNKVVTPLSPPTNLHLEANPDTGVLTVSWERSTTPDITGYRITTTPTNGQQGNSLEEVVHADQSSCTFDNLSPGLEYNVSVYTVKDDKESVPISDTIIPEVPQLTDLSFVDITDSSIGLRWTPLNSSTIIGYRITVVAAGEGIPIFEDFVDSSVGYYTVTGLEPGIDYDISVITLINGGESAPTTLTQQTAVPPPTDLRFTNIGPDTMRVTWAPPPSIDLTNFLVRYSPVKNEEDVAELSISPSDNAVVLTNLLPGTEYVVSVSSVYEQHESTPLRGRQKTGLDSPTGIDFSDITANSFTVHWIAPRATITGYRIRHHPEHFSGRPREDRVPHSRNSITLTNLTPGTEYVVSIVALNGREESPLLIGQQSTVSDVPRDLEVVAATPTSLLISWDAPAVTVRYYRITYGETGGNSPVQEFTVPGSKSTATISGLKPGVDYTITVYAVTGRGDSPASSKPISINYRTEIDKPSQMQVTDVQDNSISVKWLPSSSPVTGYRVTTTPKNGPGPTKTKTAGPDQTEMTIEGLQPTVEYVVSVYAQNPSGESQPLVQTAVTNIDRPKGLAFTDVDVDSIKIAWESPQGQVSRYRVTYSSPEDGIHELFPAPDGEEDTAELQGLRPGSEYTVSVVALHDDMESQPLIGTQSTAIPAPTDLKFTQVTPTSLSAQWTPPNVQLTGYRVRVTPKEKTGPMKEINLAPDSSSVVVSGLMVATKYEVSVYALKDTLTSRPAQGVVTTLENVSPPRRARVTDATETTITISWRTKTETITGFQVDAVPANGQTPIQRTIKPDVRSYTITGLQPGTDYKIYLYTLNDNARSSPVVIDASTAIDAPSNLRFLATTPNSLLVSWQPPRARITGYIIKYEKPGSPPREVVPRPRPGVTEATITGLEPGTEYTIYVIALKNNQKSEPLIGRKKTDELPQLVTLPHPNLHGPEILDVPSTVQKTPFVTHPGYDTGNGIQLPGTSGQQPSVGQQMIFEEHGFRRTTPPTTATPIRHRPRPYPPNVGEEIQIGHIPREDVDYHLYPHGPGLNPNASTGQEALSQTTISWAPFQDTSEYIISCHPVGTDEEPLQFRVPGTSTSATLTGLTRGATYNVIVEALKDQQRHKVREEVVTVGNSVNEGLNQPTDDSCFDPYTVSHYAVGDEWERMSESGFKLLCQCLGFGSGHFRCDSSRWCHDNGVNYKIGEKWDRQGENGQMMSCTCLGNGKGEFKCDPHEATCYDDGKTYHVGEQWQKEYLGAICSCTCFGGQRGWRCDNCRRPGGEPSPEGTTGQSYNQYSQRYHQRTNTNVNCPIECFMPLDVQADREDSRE

Molecule | inhibition of fibronectin binding to type I collagen (in words) (fibronectin [1]) | inhibition of fibronectin binding to immobilized peptide GlyGlyTrpSerHisTrp (in words) (fibronectin [3]) | further results
AAWSHW [AlaAlaTrpSerHisTrp] | inactive | – | –
DGWSHW [AspGlyTrpSerHisTrp] | inactive | – | –
DGWSPW [Peptide 317, DGWSPW] | – | – | binding of fibronectin to peptide (in words) (fibronectin [2]): inactive
GGWGPW [Peptide 318, GGWGPW] | – | – | binding of fibronectin to peptide (in words) (fibronectin [2]): inactive
GGWSHW [Peptide 300, GGWSHW] | – | – | IC50 (fibronectin [3]): 27 µM; IC50 (fibronectin [1]): 40 µM
GGWSHY [GlyGlyTrpSerHisTyr] | inactive | inactive | inhibition of fibronectin binding to gelatin (in words) (fibronectin [4]): inactive
GGWSKW [GlyGlyTrpSerLysTrp] | inactive | inactive | inhibition of fibronectin binding to gelatin (in words) (fibronectin [4]): inactive
GGWTHW [GlyGlyTrpThrHisTrp] | inactive | – | –
GGYSHW [GlyGlyTyrSerHisTrp] | inactive | inactive | inhibition of fibronectin binding to gelatin (in words) (fibronectin [4]): inactive
WSHWSP [Peptide 292, WSHWSP] | inactive | – | –
fetuin: control protein [reference compound] | – | – | IC50 for competition of 125I-fibronectin binding to peptide GlyGlyTrpSerHisTrp (fibronectin [3]): > 200 µg/mL
fibronectin | – | competed | –
thrombospondin: Human platelet thrombospondin, purified | – | competed | –
transferrin [reference compound] | – | – | IC50 for competition of 125I-fibronectin binding to peptide GlyGlyTrpSerHisTrp (fibronectin [3]): > 200 µg/mL
B1 | – | – | IC50 for competition of 125I-fibronectin binding to peptide GlyGlyTrpSerHisTrp (fibronectin [3]): > 200 µg/mL
